One assay addresses T1, EXO1 (Homo sapiens, UniProt Q9UQ84).
T1 construct: made in house
T1 sequence (Q9UQ84 1-846): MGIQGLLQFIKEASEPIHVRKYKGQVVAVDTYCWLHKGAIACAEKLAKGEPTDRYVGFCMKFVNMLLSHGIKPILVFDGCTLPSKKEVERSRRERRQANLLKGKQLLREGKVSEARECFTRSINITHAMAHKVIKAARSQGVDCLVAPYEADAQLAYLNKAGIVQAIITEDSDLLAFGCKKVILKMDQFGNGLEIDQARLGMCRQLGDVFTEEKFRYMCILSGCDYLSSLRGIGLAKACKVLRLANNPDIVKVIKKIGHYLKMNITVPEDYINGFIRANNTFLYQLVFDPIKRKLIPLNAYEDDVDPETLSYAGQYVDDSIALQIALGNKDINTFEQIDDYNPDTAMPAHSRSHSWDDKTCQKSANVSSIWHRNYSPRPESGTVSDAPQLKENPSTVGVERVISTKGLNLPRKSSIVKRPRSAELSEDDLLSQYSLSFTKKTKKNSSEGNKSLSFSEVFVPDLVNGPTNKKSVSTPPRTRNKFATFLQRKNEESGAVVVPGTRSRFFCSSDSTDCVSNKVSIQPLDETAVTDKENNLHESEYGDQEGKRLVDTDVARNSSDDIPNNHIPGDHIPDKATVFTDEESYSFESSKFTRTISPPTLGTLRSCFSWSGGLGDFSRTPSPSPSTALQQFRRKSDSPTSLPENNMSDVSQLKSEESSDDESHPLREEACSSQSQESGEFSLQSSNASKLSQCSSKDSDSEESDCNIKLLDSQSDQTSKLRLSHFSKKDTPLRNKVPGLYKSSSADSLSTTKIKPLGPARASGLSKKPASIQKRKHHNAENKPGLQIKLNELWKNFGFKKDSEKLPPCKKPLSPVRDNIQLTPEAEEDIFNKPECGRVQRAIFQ
Kind of assay: EXO1 nuclease assay (2 kb dsDNA degradation). The assay is classed as biochemical. Particulars: 10 µM; EXO1 5 nM. As for the experimental part:
Nuclease assays were performed in buffer R (20 mM Na-HEPES pH 7.5, 1 mM ATP, 0.1 mM DTT, 100 μg/ml bovine serum albumin, 0.05% Triton X-100, 2 mM MgCl2, 100 mM KCl) and contained 0.5 nM ends (2-kb substrate) or 5 nM ends (the ssDNA oligonucleotide PSOL6929) of DNA. Reactions containing Bloom syndrome also included an ATP regenerating system consisting of 10 mM creatine phosphate and 50 μg/ml creatine kinase. In control reactions, DMSO was used in place of the inhibitor. Reactions with DNA2 alone were incubated at 30 °C, and those with DNA2-Bloom syndrome-Replication protein A and EXO1 were incubated at 37 °C for the indicated times. […] Gels were dried onto DEAE paper on top of Whatman filter paper (GE, Issaquah, WA, USA) and then analyzed in a BioRad Personal Molecular Imager FX phosphorimager. Band intensity was quantified using Image Lab software (Bio-Rad, Hercules, CA, USA). The fraction of DNA substrate digested was determined by measuring the amount of substrate remaining and normalizing to the total substrate in the negative control lane containing no protein.
Figure S2. […] (b) Plots showing quantitation of the experiments shown in a. […] (d) Plots showing quantitation of the experiments shown in c. […] (f) Plot showing quantitation of the experiment in e. […]

For assay [1], the system named is DT-PD77 cells with E6/E7 oncoprotein versus DT-PD59. As to the kind of experiment: MTT proliferation, DT-PD59 versus E6/E7 DT-PD77. It is filed as cell-based, human. Particulars: 48-h treatment. As for the experimental part:
Figure 5 Oncogene induction enhances sensitivity of cancer cells to NSC-105808. (a-e) Graphs showing proliferation of indicated cell lines in response to a 48-h treatment with the indicated concentrations of NSC-105808. Proliferation relative to cells treated with vehicle alone was determined by the 3-(4,5-dimethylthiazol-2-yl)-2,5-diphenyltetrazolium bromide (MTT) assay. Each value represents the mean±s.e.m. from three independent experiments. (a) Proliferation of control pancreatic epithelial cells DT-PD59 and transformed pancreatic cancer cells AsPC-1 and PANC-1. (b) Proliferation of normal breast epithelial cells MCF10A and breast cancer cells Hs578T and BT549. (c) Proliferation of MCF10A cells with or without H-Ras expression. H-Ras was induced with doxycycline (2 μg/ml). […]
Cell proliferation was measured by 3-(4,5-dimethylthiazol-2-yl)-2,5-diphenyltetrazolium bromide (Sigma) reduction (Supplementary Materials and Methods).
To determine the cell proliferation rate, 1000 cells/well were seeded in a 96-well plate in a total volume of 100 µl in triplicate in each experiment. […] Plates were read at 490 nm and 650 nm (background) in a
microplate reader (Molecular Devices). After the subtraction of background, cell viability was calculated as fold change relative to control cells.

`NC1=C(Br)C(=O)c2ncccc2C1=O` [NSC-105808, 6-amino-7-bromoquinoline-5,8-dione]: the “Effect on nuclease activity of EXO1” value on EXO1 is recorded as “does not inhibit”. In addition, the “Sensitivity in cells with E6/E7 oncoprotein-induced replication stress” value in assay [1] is listed as “higher”.

The record behind these values is PMC5520492, “Inhibition of DNA2 nuclease as a therapeutic strategy targeting replication stress in cancer cells” (Oncogenesis, 2017).
